Source: US20050107606A1 (published 2005)

CCCn1cncc1CSc1ccc(NC(=O)C(F)(F)F)cc1
melting point: 82 to 84 °C
